Patent US11702707B2, “Systems and methods for assessing contamination of drinking water” (priority 2011, dated 2023)

Tested on: HepG2 cells
Experiment: FACTORIAL transcription factor signature assay (reporter transcription units) in a test cell system
Type: cell-based, human

Row | Molecule | most affected reporter transcription units (transcription factor signature) (24 hours after exposure) | other results
1 | O=Cc1c2[nH]c3ccccc3c2cc2[nH]c3ccccc3c12 [6-formylindolo-[3,2-b]carbazole] | – | specific pathway shown by fluorescence peak manifestation (transcription factor signature) (HepG2 cells, after 24 hours exposure): Ahryloxane receptor (AhR)
2 | [Cl][Cd][Cl] [cadmium dichloride] | – | reporter elements with most pronounced cellular response (transcription factor signature) (24 hours after exposure, 2.5 μM, 0.6 μM, 0.16 μM and 0.04 μM): most pronounced for the metallothionein response element (MRE) and the heat shock-response element (HSE)
3 | lipopolysaccharide [endotoxin (lipopolysaccharide, LPS)] | NF-kappaB and Interferon-specific response element (ISRE) | –
4 | triphenyltin | cellular heat shock response element (HSE), the peroxisome proliferator activating protein (PPAR) and the oxidative stress-specific RTU, NRF-2/ARE | –
